For seven compounds, EC50 results are on record in ChEMBL document CHEMBL1151843, “Chromones from the endophytic fungus Pestalotiopsis sp. isolated from the chinese mangrove plant Rhizophora mucronata” (J Nat Prod, 2009).

Values after ≈ are worked out from the molar mass of the structure shown.

In the first experiment the test system is L5178Y. In words: Cytotoxicity against mouse L5178Y cells after 72 hrs by MTT assay. It is filed as functional, cell-based. The note with it: Mus musculus, L5178Y, 72 h; read-out: EC50. A general note: Tetrazolium dyes change colour on reduction, which living cells bring about.
As usually defined, the EC50 is the concentration at which the effect is half-maximal. Consider `CCCCCc1cc(=O)c2c(CC(=O)OC)cc(O)cc2o1` [PESTALOTIOPSONE F], for which the EC50 is 8.93 µg/mL (≈ 29.3 µM).

Still in this experiment, the particulars now being: l5178y.
Take `Cc1cc(O)cc2oc(C[C@H](C)O)cc(=O)c12`: the 50% effective concentration (EC50) entry is “Not Active”. As for `CCCCCCCc1cc(=O)c2c(CC(=O)OC)cc(O)cc2o1` [PESTALOTIOPSONE A], the EC50 result is “Not Active”. As for `CCCCCCCc1cc(=O)c2c(CC(=O)OCC)cc(O)cc2o1` [PESTALOTIOPSONE B], the EC50 result is on record as “Not Active”. On the same count and under the same terms, to `CCCCCCCc1cc(=O)c2c(CC(=O)O)cc(O)cc2o1` [PESTALOTIOPSONE C] belongs “Not Active”; to `COC(=O)Cc1cc(O)cc2oc(CCCCCC(C)O)cc(=O)c12` (configuration not stated) [PESTALOTIOPSONE D], “Not Active”; to `CCOC(=O)Cc1cc(O)cc2oc(CCCCCC(C)O)cc(=O)c12` (configuration not stated) [PESTALOTIOPSONE E], “Not Active”.
